Experiments:
Format in all cases: biochemical
[1] = target: T1, PDX3 (At5g49970) (Arabidopsis thaliana, UniProt Q9LTX3); test: coupled spectrophotometric NADHX repair assay, […] and […] nm; details: epimerization by NNRE domain; coupled to NNRD; 1 mM ATP, 2 mM MgCl2, 5 mM KCl, Tris-HCl pH 8, 25 °C; racemic NADHX
T1 construct: gene PPOX1; cDNA without predicted transit peptide (residues 2 to 73 removed), N-terminal His6 tag, pET-28a, E. coli BL21(DE3); NNRE and POX domains both present
T1 sequence (Q9LTX3 74-530): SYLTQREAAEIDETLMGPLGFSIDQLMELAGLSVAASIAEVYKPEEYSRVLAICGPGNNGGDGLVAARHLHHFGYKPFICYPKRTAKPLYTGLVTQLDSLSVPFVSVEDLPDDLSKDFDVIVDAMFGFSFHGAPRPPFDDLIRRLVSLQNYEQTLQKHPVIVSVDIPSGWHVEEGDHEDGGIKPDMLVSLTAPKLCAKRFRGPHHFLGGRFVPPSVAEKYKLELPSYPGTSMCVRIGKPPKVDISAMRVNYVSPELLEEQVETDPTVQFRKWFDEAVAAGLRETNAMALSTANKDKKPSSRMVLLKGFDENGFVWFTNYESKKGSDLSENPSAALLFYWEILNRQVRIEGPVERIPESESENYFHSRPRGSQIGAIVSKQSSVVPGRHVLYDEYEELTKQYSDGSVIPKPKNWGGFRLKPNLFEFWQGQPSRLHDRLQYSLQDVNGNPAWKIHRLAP

[2] = target: T2, NNRD (dehydratase) (Arabidopsis thaliana, UniProt Q94AF2); test: spectrophotometric dehydratase assay, […] and […] nm; details: 1 mM ATP, 2 mM MgCl2, 5 mM KCl, Tris-HCl pH 8, 25 °C; racemic NADHX
T2 construct: gene At5g19150; no transit peptide (residues 2 to 45 removed), C-terminal His6 tag, pET-24b, E. coli BL21(DE3); locus printed as At5g12150, probably a misprint of At5g19150
T2 sequence (Q94AF2 46-365): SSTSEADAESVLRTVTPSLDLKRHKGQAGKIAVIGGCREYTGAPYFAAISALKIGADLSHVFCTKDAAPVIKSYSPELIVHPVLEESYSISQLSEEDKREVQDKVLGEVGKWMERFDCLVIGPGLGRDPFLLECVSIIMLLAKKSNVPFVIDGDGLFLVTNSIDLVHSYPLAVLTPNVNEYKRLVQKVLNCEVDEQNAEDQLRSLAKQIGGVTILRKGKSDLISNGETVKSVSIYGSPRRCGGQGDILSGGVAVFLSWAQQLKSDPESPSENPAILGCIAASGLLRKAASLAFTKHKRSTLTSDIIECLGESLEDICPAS

[3] = target: T3, Arabidopsis NR2 (NIA2, At1g37130) (Arabidopsis thaliana, UniProt P11035); test: nitrate reductase activity with APADH, absorbance at […] nm; details: electron donor replacing NADH, 0.1 mM; 10 mM potassium nitrate, 0.005 mM FAD, phosphate pH 7.5, 25 °C
T3 construct: commercial recombinant enzyme expressed and purified from Pichia pastoris
T3 sequence (P11035 1-917): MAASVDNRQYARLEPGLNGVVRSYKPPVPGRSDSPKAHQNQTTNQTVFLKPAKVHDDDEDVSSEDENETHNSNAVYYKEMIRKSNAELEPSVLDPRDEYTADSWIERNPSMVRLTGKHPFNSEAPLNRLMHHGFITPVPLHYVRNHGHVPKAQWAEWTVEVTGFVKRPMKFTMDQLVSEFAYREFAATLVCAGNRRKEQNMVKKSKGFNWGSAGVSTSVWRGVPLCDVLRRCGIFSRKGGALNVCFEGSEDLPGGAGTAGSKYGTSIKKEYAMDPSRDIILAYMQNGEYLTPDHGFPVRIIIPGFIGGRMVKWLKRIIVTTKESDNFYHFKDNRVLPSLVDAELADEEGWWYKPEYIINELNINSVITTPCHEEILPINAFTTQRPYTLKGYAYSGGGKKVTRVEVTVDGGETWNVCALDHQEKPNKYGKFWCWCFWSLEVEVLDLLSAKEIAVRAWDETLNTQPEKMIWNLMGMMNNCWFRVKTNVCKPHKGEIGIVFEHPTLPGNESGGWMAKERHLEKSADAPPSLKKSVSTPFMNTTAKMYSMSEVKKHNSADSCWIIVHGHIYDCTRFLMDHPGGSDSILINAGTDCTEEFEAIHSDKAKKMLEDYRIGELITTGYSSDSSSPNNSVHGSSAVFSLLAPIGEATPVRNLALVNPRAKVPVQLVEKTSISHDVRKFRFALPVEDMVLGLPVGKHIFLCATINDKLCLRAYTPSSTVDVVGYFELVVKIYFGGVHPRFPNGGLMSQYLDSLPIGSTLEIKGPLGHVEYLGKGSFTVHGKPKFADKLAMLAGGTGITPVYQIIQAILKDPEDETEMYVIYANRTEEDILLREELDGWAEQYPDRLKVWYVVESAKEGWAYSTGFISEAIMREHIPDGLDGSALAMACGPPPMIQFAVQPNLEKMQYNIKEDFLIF

NC(=O)C1=CN([C@@H]2O[C@H](COP(=O)(O)OP(=O)(O)OC[C@H]3O[C@@H](n4cnc5c(N)ncnc54)[C@H](O)[C@@H]3O)[C@@H](O)[C@H]2O)[C@H](O)CC1 (mixture of isomers) [(R)-NADHX]
coupled spectrophotometric NADHX repair assay, 290 and 340 nm [1]: leads to epimerization of (R)-NADHX in the racemate to (S)-NADHX by the NNRE domain

NC(=O)C1=CN([C@@H]2O[C@H](COP(=O)(O)OP(=O)(O)OC[C@H]3O[C@@H](n4cnc5c(N)ncnc54)[C@H](O)[C@@H]3O)[C@@H](O)[C@H]2O)[C@@H](O)CC1 (mixture of isomers) [(S)-NADHX]
spectrophotometric dehydratase assay, 290 and 340 nm [2]: (S)-NADHX within a racemic mixture of NADHX is dehydrated to NADH by NNRD

CC(=O)C1=CN([C@@H]2O[C@H](COP(=O)(O)OP(=O)(O)OC[C@H]3O[C@@H](n4cnc5c(N)ncnc54)[C@H](O)[C@@H]3O)[C@@H](O)[C@H]2O)C=CC1 [APADH]
nitrate reductase activity with APADH, absorbance at 363 nm [3]: the latter was replaced with its analog, 3-acetylpyridine-adenine dinucleotide (APADH

— paper PMC10517258, “PYRIDOX(AM)INE 5′-PHOSPHATE OXIDASE3 of Arabidopsis thaliana maintains carbon/nitrogen balance in distinct environmental conditions” (Plant Physiology, 2023)
